Measurements: ChEMBL document CHEMBL1130445, “The synthesis of CD-ring modified 1,25-dihydroxy vitamin D analogues: Six-membered D-ring analogues I” (1997)

Legend:
HL-60 = assay: Biological evaluation in vitro on HL-60 cell line; type: functional, Homo sapiens; design: reference not given here
Keratinocyte = assay: Biological evaluation in vitro on keratinocytes; type: functional; design: reference not given here
MG-63 = assay: Biological evaluation in vitro on MG-63 cell line; type: functional, Homo sapiens; design: reference not given here
MCF7 = assay: Biological evaluation in vitro on MCF-7 cell line; type: functional, Homo sapiens; design: reference not given here
Mus musculus = assay: The in vivo effect was tested in vitamin D-deplete normal NMRI mice by measuring calcium levels in serum.; type: functional; design: reference not given here
[1] = target: T1, Vitamin D3 receptor (Sus scrofa) (UniProt A3RGC1); assay: Inhibition of 1-alpha,25(OH)2 D3 binding to pig intestinal mucosa Vitamin D3 receptor (VDR); type: tissue-based
T1 sequence (whole entry): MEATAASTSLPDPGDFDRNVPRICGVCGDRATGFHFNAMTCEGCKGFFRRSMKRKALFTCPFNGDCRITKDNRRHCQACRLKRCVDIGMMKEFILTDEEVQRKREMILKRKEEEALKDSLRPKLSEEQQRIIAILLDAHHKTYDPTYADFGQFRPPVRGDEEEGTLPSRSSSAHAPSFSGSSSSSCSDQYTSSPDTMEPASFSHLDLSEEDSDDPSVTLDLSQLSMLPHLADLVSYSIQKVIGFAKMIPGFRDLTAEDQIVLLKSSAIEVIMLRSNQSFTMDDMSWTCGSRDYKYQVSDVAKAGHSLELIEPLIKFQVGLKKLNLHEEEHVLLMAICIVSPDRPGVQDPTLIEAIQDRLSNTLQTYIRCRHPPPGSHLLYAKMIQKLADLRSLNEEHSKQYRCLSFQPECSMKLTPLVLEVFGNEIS

For `C=C1C(=CC=C[C@H]2CCC[C@H]([C@H](C)CCCC(C)(C)O)C2(C)C)C[C@@H](O)C[C@@H]1O`, the Biological evaluation (HL-60) was 2, the Biological evaluation (Keratinocyte) was 30 and the Biological evaluation (MG-63) was 3. For the same compound, the Biological evaluation (MCF7) was 1, the Biological evaluation (Mus musculus) was under 0.1 and the Relative affinity [1] was 1.
With `C=C1C(=CC=C[C@@H]2CCC[C@H]([C@@H](C)CCCC(C)(C)O)C2(C)C)C[C@@H](O)C[C@@H]1O` the Biological evaluation (HL-60) was 1, the Biological evaluation (Keratinocyte) was 8 and the Biological evaluation (MG-63) was 1. For the same compound, the Biological evaluation (MCF7) was 0, the Biological evaluation (Mus musculus) was 0.1 and the Relative affinity [1] was 0.5.
Work on `C=C1C(=CC=C[C@H]2CCC[C@H]([C@H](C)CCCCC(O)(CC)CC)C2(C)C)C[C@@H](O)C[C@@H]1O` yielded a Biological evaluation (HL-60) of 600, a Biological evaluation (Keratinocyte) of 1500 and a Biological evaluation (MG-63) of 800. The Biological evaluation (MCF7) was 3000, the Biological evaluation (Mus musculus) was 20 and the Relative affinity [1] was 60.
In the case of `C=C1C(=CC=C[C@H]2CCC[C@H]([C@@H](C)CCCC(C)(C)O)C2(C)C)C[C@@H](O)C[C@@H]1O`, the Biological evaluation (HL-60) is reported as 1, the Biological evaluation (Keratinocyte) is reported as 8 and the Biological evaluation (MG-63) is reported as 1. The Biological evaluation (MCF7) was 0, the Biological evaluation (Mus musculus) was under 0.1 and the Relative affinity [1] was 0.9.
`C=C1C(=CC=C[C@@H]2CCC[C@H]([C@H](C)CCCC(C)(C)O)C2(C)C)C[C@@H](O)C[C@@H]1O` showed a Biological evaluation (HL-60) of 90, a Biological evaluation (Keratinocyte) of 300 and a Biological evaluation (MG-63) of 300. For the same compound, the Biological evaluation (MCF7) was 300, the Biological evaluation (Mus musculus) was 4 and the Relative affinity [1] was 125.
